Measurements reported in publication PMC9749936, “Synthesis and structure–activity relationship studies of N-terminal analogues of the lipopeptide antibiotics brevicidine and laterocidine” (RSC Medicinal Chemistry, 2022).
Like-named read-outs stand apart in the source and are kept apart here. Bridge positions count the residues as written; N and C are the ends. Square brackets hold non-standard residues; d marks the D form. Peptide text beside a SMILES is read from it. * marks the point of attachment. Octanoyl(7-Me) = CC(C)CCCCCC(=O)*; Myristoyl = CCCCCCCCCCCCCC(=O)*; dOrn = NCCC[C@@H](N)C(=O)O; X1 = CC[C@H](C)CCCCC(=O)*; Orn = NCCC[C@H](N)C(=O)O; Dab = NCC[C@H](N)C(=O)O; Hexanoyl = CCCCCC(=O)*

How the values were obtained:
S. aureus USA300 = format: cell-based, Staphylococcus aureus
Description: (§1) The minimum inhibitory concentrations (MICs) of brevicidine and laterocidine analogues were determined against a panel of clinically relevant ESKAPE pathogens; Escherichia coli (E. coli), Klebsiella pneumoniae (K. pneumoniae), Acinetobacter baumannii (A. baumannii), Pseudomonas aeruginosa (P. aeuroginosa) and Staphylococcus aureus (S. aureus), which cause the majority of nosocomial infections in the United States.[16] […] In this resistance mechanism, the polymyxin target (lipid A) is modified, reducing binding affinity. For this reason, a strain of colistin-resistant E. coli carrying the mcr-1 gene was also included in the panel. […]
(§2) IV. Antimicrobial testing
(§3) All minimum inhibitory concentrations (MICs) were determined according to Clinical and Standards Laboratory Institute (CLSI) guidelines. Blood agar plates were inoculated with glycerol stocks of E. coli ATCC 25922, K. pneumoniae ATCC 13883, A. baumannii ATCC 17961, P. aeruginosa PAO1 and S. aureus USA300. The inoculated agar plates were then incubated for 16 h at 37 °C . Individually grown colonies were subsequently used to inoculate 5 mL aliquots of TSB that were then incubated at 37 °C with shaking at 220 rpm. E. coli 25922 MCR-1 glycerol stock was used to inoculate 5 mL of TSB supplemented with kanamycin that was then incubated for 16 h at 37 °C with shaking at 220 rpm. The next day the culture was diluted 100 fold in TSB supplemented with kanamycin and incubated at 37 °C with shaking at 220 rpm. In parallel, the lipopeptide antibiotics DMSO stocks to be assessed were serially diluted with MHB in polypropylene 96-well plates (50 µL in each well). Colistin sulfate stocks were dissolved in water before being diluted with MHB. Aliquots of the inoculated TSB were incubated until an OD600 of around 0.5 was reached. The bacterial suspensions were then diluted with MHB (2 x 10^5 CFU mL-1) and added to the microplates containing the test compounds (50 µL to each well). The well-plates were sealed with an adhesive membrane and after 18 h of incubation at 37 °C with shaking at 600 rpm, the wells were visually inspected for bacterial […]
(§4) growth. MIC values reported are based on three technical replicates and defined as the lowest concentration of the compound that prevented visible growth of bacteria. […]
(§5) The values obtained from a read-out at 415 nm were corrected for background (negative control) and transformed to a percentage relative to the positive control.
(§6) VI. HPLC and HRMS analysis of peptides
(§7) Peptide Name Chemical Calcd Mass found Calcd Overall […]

Sheep red blood cells = format: cell-based
Description: Having ascertained the antimicrobial activity of all synthetic peptides against a panel of ESKAPE pathogens, we next assessed their mammalian toxicity with hemolytic assays using sheep red blood cells. The % hemolysis for all peptides at 64 μg mL^−1 was determined, with the hemolysis induced by the surfactant 0.1% Triton X-100 taken as 100%. […] Hemolysis was <1% for all analogues with a C8 chain or shorter, including the strongest antibacterial peptide C8-Lat (22). Hemolytic activity increased up to C14 (>50% for C14-Lat) and then decreased at longer chain lengths, perhaps due to decreased solubility of peptides or aggregation. […]
Phosphate-Buffered Saline (PBS) containing 0.002% Tween20 (buffer) five times. Then, the red blood cells were normalized to obtain a positive control read-out between 2.5 and 3.0 at 415 nm to stay within the linear range with the maximum sensitivity. A serial dilution of the compounds (128 – 1 µg/mL, 75 µL) was prepared in a 96-well polypropylene plate. The outer border of the plate was filled with 75 µL buffer. Each plate contained a positive control (0.1% Triton-X final concentration, 75 µL) and a negative control (buffer, 75 µL) in triplicate. The normalized blood cells (75 µL) were added and the plates were incubated at 37 °C for 1 h while shaking at 500 rpm. A flat-bottom polystyrene plate with 100 µL buffer in each well was prepared. After incubation, the plates were centrifuged (800 g for 5 min at room temperature) and 25 µL of the supernatant was transferred to their respective wells in the flat-bottom plate. The values obtained from a read-out at 415 nm were corrected for background (negative control) and transformed to a percentage relative to the positive control. […]

K. pneumoniae ATCC 13883 = format: cell-based, Klebsiella pneumoniae
Description: as §1, §2, §3, §4, §5, §6, §7

P. aeruginosa PAO1 = format: cell-based, Pseudomonas aeruginosa
Description: as §1, §2, §3, §4, §5, §6, §7

A. baumannii ATCC 17961 = format: cell-based, Acinetobacter baumannii
Description: as §1, §2, §3, §4, §5, §6, §7

E. coli ATCC 25922 MCR-1 = format: cell-based, Escherichia coli
Description: as §1
Colisitin sulfate was purchased from Activate Scientific. Kanamycin monosulfate was purchased from MP Biomedicals. E. coli ATCC 25922, S. aureus USA300 (ATCC BAA1717), K. pneumoniae ATCC 13883 and A. baumannii ATCC 17961 belong to the American Type Culture Collection (ATCC). P. aeruginosa PAO1 was kindly provided by L.H.C. Quarles Van Ufford, Utrecht University, Utrecht, The Netherlands. E. coli ATCC 25922 MCR-1 was transfected in house using the pGDP2-MCR1 plasmid kindly provided by Yong-Xin Li, The University of Hong Kong, Hong Kong, China. Sheep blood agar plates (Ref. PB5039A) were purchased from Thermo Scientific. Tryptic soy broth (Ref. 02-200-500) was purchased from Scharlab. Mueller-Hinton broth (Ref. X927.1) was purchased from Carl Roth. Polypropylene 96-wells plates (Ref. 3879) were purchased from Corning. […]
(10.0 mL). 2-Chlorotrityl (CT) chloride resin (2.00 g, 0.81 mmol g-1) and DIPEA (420 µL, 2.40 mmol) were added. […]
A gradient […]
method for C14 - C16 laterocidine was employed, starting at 100% solvent A for 2 min, ramping up to 70 % solvent B over 45 min, ramping up to 100% solvent B over 1 min, remaining there for 6 min before ramping down to 100% solvent A and remaining there for 5 min. High resolution mass spectrometry (HRMS) spectra of brevicidine peptides were recorded by Analytical Services and Environmental Projects (ASEP) at Queen’s University Belfast on a Waters LCT Premier ToF mass spectrometer using the electrospray ionisation (ESI) technique. HRMS spectra of laterocidine peptides were performed on a Thermo Scientific Dionex UltiMate 3000 HPLC system with a Phenomenex Kinetex C18 (2.6 µm, 2.1 x 150 mm) column at 35 °C and equipped with a diode array detector. The following solvent system, at a flow rate of 0.3 mL/min, was used: solvent A = 0.1% formic acid in water, solvent B = 0.1% formic acid in acetonitrile. A gradient method was employed, starting at 95 % solvent A and 5 % solvent B for 1 min, ramping up to 95 % solvent B over 9 min, ramping up to 98 % solvent B over 1 min, remaining there for 1 min before ramping back down to 95 % solvent A over 2 min and remaining there for 1 min.
The system was connected to a Bruker micrOTOF-Q II mass spectrometer (ESI ionization) calibrated internally with sodium […]
as §2
as §3, with “MHB.” for “MHB. Aliquots of the inoculated TSB were incubated until an OD600 of around 0.5 was reached. The bacterial suspensions were then diluted with MHB (2 x 10^5 CFU mL-1) and added to the microplates containing the test compounds (50 µL to each well). The well-plates were sealed with an adhesive membrane and after 18 h of incubation at 37 °C with shaking at 600 rpm, the wells were visually inspected for bacterial”

E. coli ATCC 25922 = format: cell-based, Escherichia coli
Description: as §1, §2, §3, §4, §5, §6, §7

[1] = red cells of sheep, 1 h, 64 μg mL^−1
[2] = colistin-resistant strain carrying mcr-1, CLSI broth microdilution in MHB, 18 h at 37 °C, visual inspection, three technical replicates
[3] = CLSI broth microdilution in MHB, 18 h at 37 °C, visual inspection, three technical replicates

Structure (SMILES): CCCCCC(=O)N[C@H](CO)C(=O)N[C@H](Cc1ccc(O)cc1)C(=O)N[C@H](Cc1c[nH]c2ccccc12)C(=O)N[C@H](CCCN)C(=O)N[C@@H](CCCN)C(=O)NCC(=O)N[C@H](CCCN)C(=O)N[C@@H](Cc1c[nH]c2ccccc12)C(=O)N[C@@H]1C(=O)N[C@@H]([C@@H](C)CC)C(=O)N[C@@H](CC(N)=O)C(=O)NCC(=O)NCC(=O)O[C@@H]1C [Compound 21] (Hexanoyl-[dS][dY][dW][dOrn][Orn]G[dOrn]WTINGG; ester 9-C)
- Antimicrobial activity (MIC) S. aureus USA300 (S. aureus USA300; USA300, 18 h): >32 µg/mL
- % Hemolytic activity, sheep red blood cells (Sheep red blood cells; [1]): 0.2%
- Antimicrobial activity (MIC) K. pneumoniae ATCC 13883 (K. pneumoniae ATCC 13883; ATCC 13883, 18 h): 8 µg/mL
- Antimicrobial activity (MIC) P. aeruginosa PAO1 (P. aeruginosa PAO1; PAO1, 18 h): 4 µg/mL
- Antimicrobial activity (MIC) A. baumannii ATCC 17961 (A. baumannii ATCC 17961; ATCC 17961, 18 h): 16 µg/mL
- Antimicrobial activity (MIC) E. coli ATCC 25922 MCR-1 (E. coli ATCC 25922 MCR-1; [2]): 8 µg/mL
- Antimicrobial activity (MIC) E. coli ATCC 25922 (E. coli ATCC 25922; ATCC 25922, 18 h): 4 µg/mL

Structure (SMILES): CC[C@H](C)CCCCC(=O)N[C@@H](CCN)C(=O)N[C@H](C(=O)N[C@@H](CCN)C(=O)N[C@H]1CCNC(=O)[C@H]([C@@H](C)O)NC(=O)[C@H](CCN)NC(=O)[C@H](CCN)NC(=O)[C@H](CC(C)C)NC(=O)[C@@H](CC(C)C)NC(=O)[C@H](CCN)NC1=O)[C@@H](C)O [Colistin, colistin, reference compound] (X1-[Dab]T[Dab][Dab][Dab][dL]L[Dab][Dab]T; lactam 4-C (inferred); N-terminus assumed)
- Antimicrobial activity (MIC) S. aureus USA300 (S. aureus USA300; [3]): >32 µg/mL
- % Hemolytic activity, sheep red blood cells (Sheep red blood cells; peptide at 64 μg mL^−1, 1 h at 37 °C in PBS with 0.002% Tween20, read-out at 415 nm, relative to 0.1% Triton X-100 taken as 100%, triplicate): <0.1%
- Antimicrobial activity (MIC) K. pneumoniae ATCC 13883 (K. pneumoniae ATCC 13883; [3]): 0.5 µg/mL
- Antimicrobial activity (MIC) P. aeruginosa PAO1 (P. aeruginosa PAO1; [3]): 4 µg/mL
- Antimicrobial activity (MIC) A. baumannii ATCC 17961 (A. baumannii ATCC 17961; [3]): ≤0.25 µg/mL
- Antimicrobial activity (MIC) E. coli ATCC 25922 MCR-1 (E. coli ATCC 25922 MCR-1; ATCC 25922, 18 h): 8 µg/mL
- Antimicrobial activity (MIC) E. coli ATCC 25922 (E. coli ATCC 25922; CLSI broth microdilution in MHB, polypropylene 96-well plates, 18 h at 37 °C, visual inspection, three technical replicates): 0.5 µg/mL

Structure (SMILES): CC[C@H](C)[C@@H]1NC(=O)[C@@H](NC(=O)[C@H](Cc2c[nH]c3ccccc23)NC(=O)[C@@H](CCCN)NC(=O)CNC(=O)[C@H](CCCN)NC(=O)[C@@H](CCCN)NC(=O)[C@@H](Cc2c[nH]c3ccccc23)NC(=O)[C@@H](Cc2ccc(O)cc2)NC(=O)[C@@H](CO)NC(=O)CCCCCC(C)C)[C@@H](C)OC(=O)CNC(=O)CNC(=O)[C@H](CC(N)=O)NC1=O [Compound 2, laterocidine] ({Octanoyl(7-Me)}-[dS][dY][dW][dOrn][Orn]G[dOrn]WTINGG; ester 9-C; N-terminus assumed)
- Antimicrobial activity (MIC) S. aureus USA300 (S. aureus USA300; USA300, 18 h): >32 µg/mL
- % Hemolytic activity, sheep red blood cells (Sheep red blood cells; [1]): 0.4%
- Antimicrobial activity (MIC) K. pneumoniae ATCC 13883 (K. pneumoniae ATCC 13883; ATCC 13883, 18 h): 2 to 4 µg/mL
- Antimicrobial activity (MIC) P. aeruginosa PAO1 (P. aeruginosa PAO1; PAO1, 18 h): 4 µg/mL
- Antimicrobial activity (MIC) A. baumannii ATCC 17961 (A. baumannii ATCC 17961; ATCC 17961, 18 h): 2 µg/mL
- Antimicrobial activity (MIC) E. coli ATCC 25922 MCR-1 (E. coli ATCC 25922 MCR-1; [2]): 2 µg/mL
- Antimicrobial activity (MIC) E. coli ATCC 25922 (E. coli ATCC 25922; ATCC 25922, 18 h): 2 µg/mL

Structure (SMILES): CCCCCCCCCCCCCC(=O)N[C@H](CC(N)=O)C(=O)N[C@H](Cc1ccc(O)cc1)C(=O)N[C@H](Cc1c[nH]c2ccccc12)C(=O)N[C@H](CCCN)C(=O)N[C@@H](CCCN)C(=O)NCC(=O)N[C@H](CCCN)C(=O)N[C@@H](Cc1c[nH]c2ccccc12)C(=O)N[C@@H]1C(=O)N[C@@H]([C@@H](C)CC)C(=O)NCC(=O)N[C@@H](CO)C(=O)O[C@@H]1C [Compound 16] (Myristoyl-[dN][dY][dW][dOrn][Orn]G[dOrn]WTIGS; ester 9-C)
- Antimicrobial activity (MIC) S. aureus USA300 (S. aureus USA300; USA300, 18 h): >32 µg/mL
- % Hemolytic activity, sheep red blood cells (Sheep red blood cells; [1]): 18.0%
- Antimicrobial activity (MIC) K. pneumoniae ATCC 13883 (K. pneumoniae ATCC 13883; ATCC 13883, 18 h): 32 µg/mL
- Antimicrobial activity (MIC) P. aeruginosa PAO1 (P. aeruginosa PAO1; PAO1, 18 h): 32 µg/mL
- Antimicrobial activity (MIC) A. baumannii ATCC 17961 (A. baumannii ATCC 17961; ATCC 17961, 18 h): 4 µg/mL
- Antimicrobial activity (MIC) E. coli ATCC 25922 MCR-1 (E. coli ATCC 25922 MCR-1; [2]): 16 µg/mL
- Antimicrobial activity (MIC) E. coli ATCC 25922 (E. coli ATCC 25922; ATCC 25922, 18 h): 16 µg/mL
